Values of other authors as cited in publication PMC7064328 (Environmental Health Perspectives, 2020).

Legend:
rats = conditions: ref Conley et al. 2019, cited from earlier work
[1] = parameters: method as in Gannon et al. 2016; conditions: rats; ref Gannon et al. 2016; cited from earlier work
CD-1 mice = conditions: cited from earlier work
mice = system: mice; parameters: method as in Koustas et al. 2014; conditions: pregnant dams; meta-analysis; ref Koustas et al. 2014; cited from earlier work

SMILES	LOAEL, disrupted maternal lipids (rats; gestational exposure) [mg/kg/day]	LOAEL, disrupted maternal thyroid hormone (rats; gestational exposure) [mg/kg/day]	LOAEL, lower BWs in gestationally exposed female offspring (rats) [mg/kg/day]	Elimination half-life [1] [h]	Dam plasma concentration (CD-1 mice; 5 mg/kg/d on lactation day 21, ref DuPont-18,405-1,037) [µg/mL]	NOAEL for reproductive toxicity and maternal systemic toxicity (CD-1 mice; microscopic changes in maternal liver, ref DuPont-18,405-1,037 (Edwards 2010b)) [mg/kg/day]	Shift in pup birth weight per 1-mg/kg BW/d increase in PFOA dose (mice) [g]
N.O=C(O)C(F)(OC(F)(F)C(F)(F)C(F)(F)F)C(F)(F)F (stereo not shown) [GenX, ammonium 2,3,3,3-tetrafluoro-2-(heptafluoropropoxy)propanoate]	125	30	125	~5	36.4	5	
O=C(O)C(F)(F)C(F)(F)C(F)(F)C(F)(F)C(F)(F)C(F)(F)C(F)(F)F [PFOA, Perfluorooctanoic acid]							-0.023
